From patent US20230390291A1, “TREATMENT OF SKIN DISORDERS WITH COMPOSITIONS COMPRISING AN EGFR INHIBITOR” (Sol-Gel Technologies Ltd., priority 2018, published 2023)
Counter-ions that a name gives are not always drawn. Like-named read-outs stand apart in the source and are kept apart here.

What was measured:
[1] = tested on: psoriasis-induced human skin xenotransplants; experiment: Histological evaluation of psoriasis-induced xenotransplants; assay type: in vivo, beige-SCID mice; details: topical for 14 days, histology on Day 56
Text: The objective of this study was to determine the efficacy of Erlotinib 5% as provided herein compared to the vehicle and Dexamethasone as shown at the Table below. The evaluation was based on histology analysis following application of the respective test formulations.
The efficacy study has been conducted on female mice. The total duration of the experiment was 8 weeks, upon receiving of the human skin. Normal skin from healthy volunteers were obtained for grafting. Healthy human abdominal skin pieces with a width of 0.4 mm and surface area of 1.5×1.5 cm were provided. The skin sample was preserved in isotonic saline solution and transplanted within 6-12 hours after skin donation. In addition, blood samples were collected from psoriatic patients having classic plaque psoriasis and not undergoing any treatment. 20 mL blood samples were taken from both males and females psoriatic patients (from psoriatic patients having classic plaque psoriasis and not undergoing any treatment), and peripheral blood mononuclear cells (PBMC) were separated immediately after blood withdrawal.
Mice: Beige-severe combined immunodeficient mice C.B-17/IcrHsdscid-bg (beige-SCID) mice (weight ˜25 g) were included in this study. Mice were monitored twice a week for vital signs such as weight, food intake, coat, eyes, anal genital areas, discharge/soiling, behavior and criteria related to skin transplantation. Normal healthy human donor skin were transplanted onto the beige-SCID mice as previously described (See Keren A. et al., Novel nanosome delivery system combined with siRNA targeting the antimicrobial gene DFB4: a new approach for psoriasis management?ExpDermatol. 2014; 23:464-465; Bracke S. et al.,Targeted silencing of DEFB4 in a bioengineered skin-humanized mouse model for psoriasis: development of siRNA SECosome-based novel therapies. ExpDermatol. 2014 ;23:199-201; Zaretsky M. et al., Directed evolution of a soluble human IL-17A receptor for the inhibition of psoriasis plaque formation in a mouse model. Chem Biol. 2013 21; 20:202-2; Gilhar A. et al., The beneficial effect of blocking Kv1.3 in the psoriasiform SCID mouse model. J Invest Dermatol. 2011;131:118 124; Keren A. et al., Innate lymphoid cells 3 induce psoriasis in xenotransplanted healthy human skin. J Allergy Clin Immunol. 2018;142:305-308.e6.).
British Journal of Pharmacology 2010; 159:842-855).
Four weeks following the engraftment, each mouse was injected (intradermally) with 1×10^7 IL-2 enriched allogeneic PBMC's from psoriatic patients (1×10^7 cells injected/mouse). Cells from different psoriasis patients were equally distributed between treatment groups. Each patient was represented in each treatment group.
Fourteen days following cells injections, the mice were divided into treatment groups (Table, see below) and treated according to the timeline indicated below (see Scheme 1). Each transplant was equally topically treated (50 μg) by using a sterile spatula.
Dexamethasone (D2915, Sigma): was freshly prepared for each administration by dilution in saline to final concentration (50 mg/ml). Dexamethasone serves as a positive control and was administered topically twice daily for 14 days following cells injections (at Day 42 following human skin transplantation) until the end of the study (Day 56).
The vehicle was administered topically (50 μg) once daily for 14 days as well.
On Day 56, the entire skin graft was excised and placed in 10% formaldehyde in saline overnight. Then, the specimens were placed in 70% ethanol and embedded and stained according to the standard Hematoxylin/Eosin protocol.
Skin graft histological assessment was performed (according to the psoriatic criteria including epidermal thickness) using light microscopy, and two observers blindly performed the evaluations. Epidermal thickness was determined using an ocular micrometer at a minimum of 50 points along the epidermis selected to represent points of maximal and minimal thickness. […]

[2] = tested on: Ki67; experiment: Epidermal proliferation of transplants, Ki67 immunohistochemical staining; assay type: in vivo, beige-SCID mice; details: xenotransplants after 14 days of treatment
Description: From the study of Example 11, the human skin xenotransplants were harvested and fixed in 10% saline-buffered formalin overnight followed by 70% ethanol. Sections were stained and visualized with immunohistochemistry.
Antigen retrieval was performed on the slides for 20 minutes in a microwave followed by cooling at room temperature for 25 minutes. Specimens were blocked for 30 minutes to prevent nonspecific binding and incubated with the primary antibody (Ab) overnight. The following primary antibodies were used: mouse anti human Ki67. Samples were then washed and incubated for 30 minutes with a biotinylated secondary antibody (Jackson ImmunoResearch, West Grove, Pa.). Finally, samples were washed and incubated with streptavidin-horseradish peroxidase (Jackson ImmunoResearch, West Grove, Pa.). […] Samples were examined using light microscopy.
Slides were evaluated by experienced blinded observers. The fields of immunostained sections were counted in three areas and presented randomly to the observer(s).

[3] = cited from earlier work
[4] = number of transplants out of 10

## C[C@@H]1C[C@H]2[C@@H]3CCC4=CC(=O)C=C[C@]4(C)[C@@]3(F)[C@@H](O)C[C@]2(C)[C@@]1(O)C(=O)CO [Dexamethasone]
[1]; [4]
  Complete Recovery: 9/10
  Partial Recovery: 1/10
  Psoriatic Features: 0/10
[1]; percent of transplants
  Complete Recovery: (90%)
  Partial Recovery: (10%)
  Psoriatic Features: (0%)

## C#Cc1cccc(Nc2ncnc3cc(OCCOC)c(OCCOC)cc23)c1 [Erlotinib, N-(3-ethynylphenyl)-6,7-bis(2-methoxyethoxy)-4-quinazolinamine]
[2]
  proliferation index (Ki-67) compared to vehicle-treated xenotransplants: significant decrease

## C#Cc1cccc(Nc2ncnc3cc(OCCOC)c(OCCOC)cc23)c1 [Erlotinib hydrochloride]
[3]; in acetone
  Solubility: practically insoluble
[3]; in acetonitrile
  Solubility: practically insoluble
[3]; in ethyl acetate
  Solubility: practically insoluble
[3]; in hexane
  Solubility: practically insoluble
[3]; in methanol
  Solubility: slightly soluble
[3]; in water
  Solubility: very slightly soluble
